According to ChEMBL document CHEMBL3507680, “University of Dundee, Gates Library screen for HepG2 cell viability”:

Experiment: Human HepG2 cell viability assay in 384 well format
Assay type: toxicity, cell-based
Set-up: dose 125 nL, time 70.5 hour; concentration not given beside the values
Conditions: HepG2 cells, read-out: Inhibition

Structure (SMILES) | cytotoxicity at 70.5 h
Cc1cccc(N2CCN(C(=O)CN3CCN(CCO)CC3)CC2)c1 | 0.659%
CN1CCCc2cc(NC(=O)N3CCOC(C(N)=O)C3)ccc21 (stereo not drawn) | 3.77%
Cc1cnc(C(=O)N2CCCN(Cc3csc(C)n3)CC2)cn1 | -5.72%
Cc1ccc(OCC(=O)NCc2ccccc2F)nc1 | -2.31%
CS(=O)(=O)c1ccc(OCCNCc2ccc(F)cc2F)cc1 | 0.183%
CCN(CC)c1ccc(NS(=O)(=O)c2cnn(C)c2)cn1 | -2.05%
CCCNC(=O)COc1ccc(C)cn1 | -0.369%
CC(C)Oc1cccc(C(O)CNC(=O)CCc2ccncc2)c1 (stereo not drawn) | -5.8%
Cc1[nH]ccc1C(=O)Nc1cccc(CN2CCC(CO)CC2)c1 | 27.9%
Cc1[nH]ccc1C(=O)Nc1cccc(CN2CCC(O)CC2)c1 | 1.4%
NCC(c1ccccc1)N1CCc2sccc2C1 (stereo not drawn) | 5.18%
O=C(Nc1ccccn1)C1CC(=O)N(Cc2ccccn2)C1 (stereo not drawn) | 16.8%
O=C(NC1CCC1)c1c2c(N3CCCC3)ncnc2n2ccccc12 | -2.42%
CC(=O)N1CCC2(CCN(C(=O)c3ccc(F)c(C(F)(F)F)c3)CC2)C1 | -6.93%
O=C(c1ccccn1)N1CC[C@@H](N2CCOCC2)[C@@H]1Cc1ccccc1 | -10.4%
O=C(c1cnccn1)N1CC[C@H]2C[C@@H](c3ccncn3)O[C@@H]2C1 | -11.7%
O=C(c1ccoc1)N1CC[C@H]2C[C@@H](c3ccncn3)O[C@@H]2C1 | 4.08%
O=C(c1ccsc1)N1CC[C@@H](N2CCOCC2)[C@@H]1Cc1ccccc1 | -11.8%
Cc1ccc(CN2CCC3(CC(=O)N(c4ccc5c(c4)OCO5)C3)C2)o1 (stereo not drawn) | -6.86%
Cc1cc(C(=O)N2CC[C@H]3C[C@H](c4ccncn4)O[C@@H]3C2)c(C)[nH]1 | -4.78%
CC(=O)N1CCC2(CC1)CCN(C(=O)c1ccc(F)c(C(F)(F)F)c1)C2 | -7.91%
CC(=O)N1CCC2(CCN(Cc3ccc(Cl)c(C(F)(F)F)c3)CC2)C1 | -11.6%
CC(=O)N1CCC2(CCN(C(=O)c3ccc(F)c(C(F)(F)F)c3)C2)C1 (stereo not drawn) | -12.8%
Cn1cccc1C(=O)N1C[C@@H](OCc2cccnc2)[C@H]2OCCC[C@H]21 | 8.24%
c1cc(CN2CCOCC3(CCN(C4CCOCC4)C3)C2)ccn1 (stereo not drawn) | 6.88%
O=C(NCC1Cn2nnc(-c3cccc(F)c3)c2CO1)c1ccc[nH]1 (stereo not drawn) | 4.99%
c1cnc(OCc2nnc3n2CCN(CC2CCOCC2)C3)nc1 | -7.25%

Structure (SMILES) | cytotoxicity at 70.5 h
Cc1nccc([C@H]2C[C@@H]3CCN(Cc4ccco4)C[C@H]3O2)n1 | -10.9%
CCOCC1CC2(CCN(C(=O)c3ncccn3)CC2)CO1 (stereo not drawn) | -10.5%
CN(C)Cc1nnc2n1CCN(Cc1ccccn1)CC2 | -10.5%
CC(C)NC(=O)N1CCC2(CC(=O)N(c3cccc(F)c3)C2)C1 (stereo not drawn) | -12.8%
CO[C@H]1CN(C(=O)c2ccnnc2)[C@@H]2COC[C@H]12 | 36.6%
Cc1ccc(S(=O)(=O)N2CCC3(CC(C(=O)NCC(C)C)=NO3)C2)cc1 (stereo not drawn) | 7.95%
Cc1nccc([C@@H]2C[C@@H]3CCN(Cc4ccco4)C[C@H]3O2)n1 | 12.2%
O=C(c1ccnnc1)N1C[C@H](OCc2ccccn2)[C@H]2COC[C@H]21 | 4.62%
O=C(c1ccncn1)N1C[C@@H]2CN(Cc3cccnc3)CCO[C@@H]2C1 | -12.7%
O=C(c1ccccn1)N1CCC2(CC1)COC(COc1cccnc1)C2 (stereo not drawn) | -7.52%
CC(C)c1nccc([C@@H]2C[C@@H]3CCN(Cc4ccco4)C[C@H]3O2)n1 | 38.3%
Fc1cnc(N2CCC3(CCCN(c4nncs4)C3)C2)nc1 (stereo not drawn) | -6.18%
NC(=O)N1CCCC(C(=O)N2CCc3c(nc(CC4CC4)[nH]c3=O)C2)C1 (stereo not drawn) | -6.32%
Cc1nc(CNC(=O)CC2C(=O)NCCN2Cc2ccccc2C)n[nH]1 (stereo not drawn) | -0.629%
CCCc1cc(C(=O)N(Cc2cccnc2)Cc2cccnc2)[nH]n1 | -7.25%
O=C(c1ccccn1)N1CCC(c2nccn2Cc2ccncc2)CC1 | -14.4%
Cc1nc(CC(=O)N2CCCC2c2nc(C(C)C)no2)cs1 (stereo not drawn) | -6.42%
CCN(C)CC(=O)N1CCN(Cc2ccccc2)[C@@H]2CS(=O)(=O)C[C@@H]21 | 2.14%
OC[C@H]1CN(C2Cc3ccccc3C2)C[C@H]1CN1CCC(O)CC1 | -7.74%
c1csc(-c2noc(COCC3CCCO3)n2)c1 (stereo not drawn) | 1.87%
Cc1c(CNCCCOc2cccnc2)c2ccccc2n1CC(N)=O | 5.45%
COc1ccc(OCC2CCCN(c3nc(CO)cs3)C2)cc1 (stereo not drawn) | -9.63%
CN(Cc1ccc(CCC(C)(C)O)cc1)Cc1cccnc1 | -11.5%
NC(=O)CN1CCC(C(=O)NCCc2nc(-c3ccccc3)cs2)CC1 | -3.75%
Cc1nnsc1CN1CC[C@@](O)(C2CCC2)[C@H](C)C1 | -7.08%
CCn1nc(CC(C)C)cc1C(=O)N1CC(N2CCCCC2C)C1 (stereo not drawn) | -2.38%
